In PMC9860980, “Pharmacokinetics and Pharmacodynamics (PK/PD) of Corallopyronin A against Methicillin-Resistant Staphylococcus aureus” (Pharmaceutics, 2022):

Test: Biodistribution of CorA to organs/tissues of CD-1 mice (LC-MS/MS)
Type: in vivo
Description: For pharmacokinetic (PK) experiments, 6–8-week-old outbred female CD-1 mice (Charles River, Germany) were used. CorA was dissolved in PEG400/phosphate-buffered saline (PBS) (80:20 (v/v)). CorA was administered once daily at 60 mg/kg intraperitoneally (IP), 100 mg/kg IP, 100 mg/kg subcutaneously (SC) and 100 mg/kg perorally (PO). Moreover, CorA was administered at 30 mg/kg IP twice a day (BID) (administration time points t = 0 and 6 h after first dose). Animals (n = 3 per time point) receiving either 60 mg/kg IP or 100 mg/kg IP were euthanized at 10, 15, 30, 60 and 180 min after administration. Animals (n = 3 per time point) receiving 30 mg/kg IP BID were euthanized at 0.167, 0.25, 0.5, 1, 3, 5.75, 6.167, 6.25, 6.5, 7 and 9 h after first administration. Animals (n = 3 per time point) receiving 100 mg/kg SC or 100 mg/kg PO were euthanized at 0.25, 1, 2, 4 and 8 h after administration. At every time point blood was removed from the heart, collected into tubes coated with 0.5 M ethylenediaminetetraacetic acid (EDTA), immediately spun down at 15,870× g for 10 min at 4 °C and the resultant plasma transferred into a new tube. Furthermore, at every time point heart, lung, brain, liver, spleen, kidneys, and thigh muscles were removed and frozen in liquid nitrogen. For animals receiving 100 mg/kg PO also rectum (without feces), pharynx, skin, vaginal tract, subcutaneous fat tissue, visceral fat tissue and tibiae were removed and frozen in liquid nitrogen. Before removing the vaginal tract, a vaginal flush was performed.
Caffeine was used as an internal standard.

SMILES: C/C=C/C/C=C(\C)C(O)CC/C(C)=C/C=C(\C)C(=O)c1c(O)cc([C@H](C)CC/C=C/NC(=O)OC)oc1=O (some centres unmarked) [CorA, Corallopyronin A]
- CorA in vaginal flush (100 mg/kg PO): not found
- time initial peak concentrations in tissue are above the MIC (IP dosing): 2 to 3 h
- AUC (brain, 30 mg/kg IP): 0.05 µg·h/g
- AUC (brain, 60 mg/kg IP): 0.10 µg·h/g
- AUC (brain, 100 mg/kg IP): 0.10 µg·h/g
- AUC (brain, 100 mg/kg SC): 0.24 µg·h/g
- time tissue concentration exceeds the in vitro MIC against MRSA (female, CD-1, mouse, in vivo, sc, 100 mg/kg): more than 9 h
- Cmax (female, CD-1, mouse, thigh muscle, thigh, 30 mg/kg IP): 100 ng/g
- Cmax (female, CD-1, mouse, thigh muscle, thigh, 60 mg/kg IP): 300 ng/g
- Cmax (female, CD-1, mouse, thigh muscle, thigh, 100 mg/kg IP): 700 ng/g
- Tmax (female, CD-1, mouse, 100 mg/kg PO, thigh, heart, kidney, spleen, lung, liver, fat, rectum, pharynx, vaginal tract, skin, tibia, read-out: time of peak concentration in the investigated tissues): 15 to 30 min
- Cmax (female, CD-1, mouse, brain, 30 mg/kg IP): 40 ng/g
- Cmax (female, CD-1, mouse, brain, 60 mg/kg IP): 70 ng/g
- Cmax (female, CD-1, mouse, brain, 100 mg/kg IP): 100 ng/g
- Cmax (female, CD-1, mouse, brain, 100 mg/kg SC): 150 ng/g
- Cmax (female, CD-1, mouse, heart, 30 mg/kg IP): 1100 ng/g
- Cmax (female, CD-1, mouse, heart, 60 mg/kg IP): 1800 ng/g
- Cmax (female, CD-1, mouse, heart, 100 mg/kg IP): 3100 ng/g
- Cmax (female, CD-1, mouse, heart, 100 mg/kg SC): 1480 ng/g
- Cmax (female, CD-1, mouse, kidney, 30 mg/kg IP): 700 ng/g
- Cmax (female, CD-1, mouse, kidney, 60 mg/kg IP): 1200 ng/g
- Cmax (female, CD-1, mouse, kidney, 100 mg/kg IP): 1800 ng/g
- Cmax (female, CD-1, mouse, kidney, 100 mg/kg SC): 1760 ng/g
- Cmax (female, CD-1, mouse, liver, 30 mg/kg IP): 310 ng/g
- Cmax (female, CD-1, mouse, liver, 60 mg/kg IP): 430 ng/g
- Cmax (female, CD-1, mouse, liver, 100 mg/kg IP): 610 ng/g
- Cmax (female, CD-1, mouse, liver, 100 mg/kg SC): 2300 ng/g
- Cmax (female, CD-1, mouse, lung, 30 mg/kg IP): 1500 ng/g
- Cmax (female, CD-1, mouse, lung, 60 mg/kg IP): 3100 ng/g
- Cmax (female, CD-1, mouse, lung, 100 mg/kg IP): 4800 ng/g
- Cmax (female, CD-1, mouse, lung, 100 mg/kg SC): 1270 ng/g
- Cmax (female, CD-1, mouse, spleen, 30 mg/kg IP): 1400 ng/g
- Cmax (female, CD-1, mouse, spleen, 60 mg/kg IP): 2100 ng/g
- Cmax (female, CD-1, mouse, spleen, 100 mg/kg IP): 4900 ng/g
- Cmax (female, CD-1, mouse, spleen, 100 mg/kg SC): 600 ng/g
- AUC (heart, 30 mg/kg IP): 1.08 µg·h/g
- AUC (heart, 60 mg/kg IP): 1.83 µg·h/g
- AUC (heart, 100 mg/kg IP): 2.10 µg·h/g
- AUC (heart, 100 mg/kg SC): 3.53 µg·h/g
- AUC (kidney, 30 mg/kg IP): 0.49 µg·h/g
- AUC (kidney, 60 mg/kg IP): 0.95 µg·h/g
- AUC (kidney, 100 mg/kg IP): 1.01 µg·h/g
- AUC (kidney, 100 mg/kg SC): 5.61 µg·h/g
- AUC (liver, 30 mg/kg IP): 0.40 µg·h/g
- AUC (liver, 60 mg/kg IP): 0.57 µg·h/g
- AUC (liver, 100 mg/kg IP): 0.59 µg·h/g
- AUC (liver, 100 mg/kg SC): 12.44 µg·h/g
- AUC (lung, 30 mg/kg IP): 1.2 µg·h/g
- AUC (lung, 60 mg/kg IP): 3.56 µg·h/g
- AUC (lung, 100 mg/kg IP): 2.67 µg·h/g
- AUC (lung, 100 mg/kg SC): 3.85 µg·h/g
- time CorA levels above the MIC (lung, 100 mg/kg SC): ~ 4 h
- time CorA levels exceed the in vitro MIC (lung, all three doses administered IP (30, 60, 100 mg/kg)): around 3 h
- AUC (spleen, 30 mg/kg IP): 0.77 µg·h/g
- AUC (spleen, 60 mg/kg IP): 1.34 µg·h/g
- AUC (spleen, 100 mg/kg IP): 2.55 µg·h/g
- AUC (spleen, 100 mg/kg SC): 1.4 µg·h/g
- AUC (thigh, 30 mg/kg IP): 0.19 µg·h/g
- time CorA levels exceed the MIC (thigh, 30 mg/kg IP): about one hour
- AUC (thigh, 60 mg/kg IP): 0.49 µg·h/g
- time CorA levels above the MIC (thigh, 60 mg/kg IP): around 3 h
- AUC (thigh, 100 mg/kg IP): 0.60 µg·h/g
- time CorA levels above the MIC (thigh, 100 mg/kg IP): around 3 h
- peak concentrations in thigh above the in vitro determined MIC (thigh, 100 mg/kg IP, MIC 0.125 µg/mL): 3–5 ×
- CorA levels in thigh tissue (thigh, 100 mg/kg SC): no CorA levels were detected
